According to PMC8619001, “Discovery of New Ginsenol-Like Compounds with High Antiviral Activity” (Molecules, 2021):

Columns and labels:
HSV-1 = system: HSV-1; set-up: method as in PMID 20008902; settings: HSV-1, Figure 1; cited from earlier work
[1] = system: A/California/7/2009 (H1N1) pdm09; experiment: microbe, parasite or virus in culture; format: cell-based, influenza virus A/California/07/09 (H1N1)pdm09; settings: Influenza A virus, H1N1, MDCK, 72 h, read-out: IC50 H1N1
in vitro = settings: dog
A/Aichi/2/1968 (H3N2) = experiment: microbe, parasite or virus in culture; format: cell-based, influenza virus A/Aichi/2/68 (H3N2); settings: Influenza A virus, H1N1 / H3N2, MDCK, 72 h, read-out: IC50 H1N1
[2] = system: HA of A/California/7/2009 (H1N1); format: biochemical, influenza virus A/California/07/09 (H1N1)pdm09; settings: pH 5
[3] = system: influenza virus A/Puerto Rico/8/34 (H1N1); experiment: organism not typed; format: cell-based; settings: for IC50: MDCK, 72 h, read-out: IC50 H1N1
[4] = system: B/Florida/4/2006 (Yamagata-like); experiment: microbe, parasite or virus in culture; format: cell-based, influenza virus B/Florida/4/2006 (Yamagata-like); settings: Influenza B virus, MDCK, 72 h, read-out: IC50 H1N1
[5] = system: HA of influenza viruses A of H3, H5, and H7 subtypes and influenza virus B; format: biochemical; settings: pH 5
HA of A/Puerto Rico/8/34 = HA of A/Puerto Rico/8/34 (Influenza A virus, UniProt P03452); format: biochemical, influenza virus A/Puerto Rico/8/34 (H1N1); settings: pH 5
HA of A/Puerto Rico/8/34, sequence (P03452 18-343 limits assumed): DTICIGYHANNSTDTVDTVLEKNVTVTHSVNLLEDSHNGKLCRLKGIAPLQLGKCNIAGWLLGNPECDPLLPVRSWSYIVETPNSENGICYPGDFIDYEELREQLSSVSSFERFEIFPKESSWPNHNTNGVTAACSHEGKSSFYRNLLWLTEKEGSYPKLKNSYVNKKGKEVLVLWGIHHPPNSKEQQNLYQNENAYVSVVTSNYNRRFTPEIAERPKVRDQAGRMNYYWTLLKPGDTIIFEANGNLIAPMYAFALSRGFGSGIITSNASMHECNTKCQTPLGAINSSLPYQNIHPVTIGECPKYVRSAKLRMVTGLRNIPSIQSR
HA of A/Puerto Rico/8/34, sequence (P03452 344-565 limits assumed): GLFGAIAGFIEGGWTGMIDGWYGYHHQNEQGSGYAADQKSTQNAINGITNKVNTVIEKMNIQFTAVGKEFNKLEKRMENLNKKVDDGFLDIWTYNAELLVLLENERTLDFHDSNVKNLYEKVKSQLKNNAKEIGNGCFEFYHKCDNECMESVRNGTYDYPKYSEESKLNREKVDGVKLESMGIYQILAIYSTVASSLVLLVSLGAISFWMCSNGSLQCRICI

A/Anhui/1/2013 (H7N9) = experiment: microbe, parasite or virus in culture; format: cell-based, influenza virus A/Anhui/1/2013 (H7N9); settings: Influenza A virus, H1N1 / H7N9, MDCK, 72 h, read-out: IC50 H1N1
[6] = system: influenza virus A/Puerto Rico/8/1934 (H1N1); experiment: organism not typed; format: cell-based, influenza virus A/Puerto Rico/8/34 (H1N1); settings: MDCK, 24 h, read-out: IC50 (virus yield reduction)
[7] = system: influenza virus A/Puerto Rico/8/34 (H1N1); format: cell-based
[8] = target: viral hemagglutinin (HA) of influenza virus A/Puerto Rico/8/34 (H1N1) (Influenza A virus, UniProt P03452); format: biochemical
viral hemagglutinin (HA) of influenza virus A/Puerto Rico/8/34 (H1N1), sequence (P03452 18-343 limits assumed): as the sequence (P03452 18-343 limits assumed) above
viral hemagglutinin (HA) of influenza virus A/Puerto Rico/8/34 (H1N1), sequence (P03452 344-565 limits assumed): as the sequence (P03452 344-565 limits assumed) above

[9] = system: HA of A/Vladivostok/2/2009 (H1N1); format: biochemical, influenza virus A/Vladivostok/2/2009 (H1N1); settings: pH 5
[10] = In vivo toxicity study (LD50)
[11] = system: A/Mallard/Pennsylvania/1984 (H5N2); experiment: microbe, parasite or virus in culture; format: cell-based, influenza virus A/mallard/Pennsylvania/10218/84 (H5N2); settings: Influenza A virus, H1N1 / H5N2, MDCK, in Anas platyrhynchos, 72 h, read-out: IC50 H1N1
[12] = system: influenza virus A/Leningrad/134/17/1957 (H2N2); settings: cited from earlier work

SMILES	CC50 (in vitro) [µM]	IC50 [3] [nM]	SI [3]	other results
C=C1CC/C=C(\C)CC[C@@H]2[C@@H]1CC2(C)C [Caryophyllene]				SI (HSV-1): 140
CC(=O)NC12CC(C)(C)C3CCC1(C)CCCC32C [Compound 1a, (1S,3aR,4R,7aS)-N-(2,2,4,7a-tetramethyloctahydro-1,4-etanoinden-3a-yl)-acetamide]	> 1140	152 ± 30		IC50 [1]: 10.7 ± 1.3 µM; IC50 (A/Aichi/2/1968 (H3N2)): 789 ± 82 µM; Inhibition of fusogenic activity of viral HA [2]: less sensitive; IC50 [4]: 1.13 ± 0.141 mM; Inhibition of fusogenic activity of viral HA [5]: did not decrease their fusogenic activity, or this effect was observed only at the highest concentrations; Inhibition of fusogenic activity of viral HA (HA of A/Puerto Rico/8/34): highest activity; IC50 (A/Anhui/1/2013 (H7N9)): 126 ± 11.8 µM; IC50 [6]: 150 nM; Period of presence in the culture medium giving the most pronounced effect [7]: 0 to 2 h post-infection (hpi); Effect on the hemagglutinating titre of the virus [8]: did not change the hemagglutinating titre of the virus; Inhibition of fusogenic activity of viral HA [9]: highest activity; LD50 [10]: > 5000 mg/kg; IC50 [11]: 133 ± 15.6 µM
CCC(=O)NC12CC(C)(C)C3CCC1(C)CCCC32C (stereo not drawn) [Compound 1b, N-(2,2,4,7a-tetramethyloctahydro-3aH-1,4-ethanoinden-3a-yl)propionamide]	128 ± 9.4	144 ± 19	890	melting point: 103 °C
CC(C)C(=O)NC12CC(C)(C)C3CCC1(C)CCCC32C (stereo not drawn) [Compound 1c, N-(2,2,4,7a-tetramethyloctahydro-3aH-1,4-ethanoinden-3a-yl)isobutyramide]	> 1030	210 ± 29	5000	melting point: 103 °C
CC1(C)CC2(NC(=O)c3ccccc3)C3(C)CCCC2(C)C1CC3 (stereo not drawn) [Compound 1d, N-(2,2,4,7a-tetramethyloctahydro-3aH-1,4-ethanoinden-3a-yl)benzamide]	141 ± 11.5	9200 ± 1100	15	
CC1(C)CC2(N)C3(C)CCCC2(C)C1CC3.Cl (stereo not drawn) [Compound 2, 2,2,4,7a-tetramethyloctahydro-3aH-1,4-ethanoinden-3a-amine hydrochloride]	15.4 ± 1.2	450 ± 60	34	melting point: 257.8 to 261.3 °C
CC(=S)NC12CC(C)(C)C3CCC1(C)CCCC32C (stereo not drawn) [Compound 3, N-(2,2,4,7a-tetramethyloctahydro-3aH-1,4-ethanoinden-3a-yl)ethanethioamide]	> 1130	1130 ± 190	1000	
CC(C)=CCC/C(C)=C/CC/C(C)=C/CO [Farnesol]				SI (HSV-1): 11
CCOC(=O)C1=C[C@@H](OC(CC)CC)[C@H](NC(C)=O)[C@@H](N)C1 [Oseltamivir, reference compound]	> 200	310 ± 40		
C[C@H]1CC[C@@]2(O)C(C)(C)[C@@H]3CC[C@@]2(C)[C@H]1C3 [Patchouli alcohol]				SI [12]: 4.9
NC(=O)c1ncn([C@@H]2O[C@H](CO)[C@@H](O)[C@H]2O)n1 [Ribavirin, reference compound]		24600 ± 3700	>81	CC50 at 72 h (in vitro): > 2 mM
CC(N)C12CC3CC(CC(C3)C1)C2 (stereo not drawn) [Rimantadine, reference compound]	335 ± 27	67000 ± 4900	5	
C=C1CCC2OC2(C)CCC2C1CC2(C)C (stereo not drawn) [beta-Caryophyllene oxide]				SI (HSV-1): 25
